Measurements published in patent publication US8633204B2 (Pfizer Inc., priority 2006, dated 2014).
Entries after “also recorded” stand apart in the source; their conditions may differ.

Tests used:
PC3 tumor model = test: Mouse xenograft efficacy study, PC3; format: in vivo
Method: The in vivo efficacy of 2-amino-8-(trans-4-hydroxycyclohexyl)-6-(6-methoxypyridin-3-yl)-4-methylpyrido[2,3-d]pyrimidin-7(8H)-one (Compound 152) disclosed in Example 53 was examined in s.c. xenograft model. Human tumor cell lines PC3 (PTEN deletion)), U87MG (PTEN deletion) and SKOV3 (PI3Kα […]) were chosen for in vivo efficacy studies due to their different genetic background and relatively high levels of phospho AKT S473 signal. Cells were implanted in the hind flank of athymic mice and tumors grew in size to 100-200 mm^3 before daily oral treatment with Compound 152 was initiated. […] For all models tested 1 mg/kg was an efficacious dose.
Animal Care: Female and male athymic mice (6-8 weeks old) weighing ˜22 g were obtained from Charles River Laboratory. Animal were housed on a 12 h light/dark cycle in the Pfizer vivarium and all procedures are conducted in accordance with the Pfizer Institutional Animal Care and Use Committee (IACUC). Animals are provided free access to rodent chow and water ad libitum and maintained under clean room conditions. Prior to study start animals acclimate for at least 48 h.
Cell lines: All cell lines were cultured at 37° C. in humidified 5% CO2 incubator. U87 MG glioblastoma tumor cell line was obtained from American Type Culture Collection (ATCC) and cultured with DMEM supplemented with 15% FBS and 2 mM glutamine. PC3 prostate cancer cell line were obtained from National Cancer Institute and cultured in RPMI media supplemented with 10% FBS and 2 mM glutamine. SKOV3 ovarian cancer cells were obtained from ATCC and passaged multiple times through mice, and cultured in McCoy's 5A media supplemented with 10% FBS and 2 mM glutamine. All cell lines were tested by University of Missouri Research Animal Diagnostic Laboratory for known species of murine viruses and mycoplasma contamination.
Mouse Xenograft Models: U87MG (glioblastoma), PC3 (prostate cancer) and SKOV3 (ovarian cancer) cell lines in culture were harvested by trypsinisation. Briefly, 2.5−4×10^6 tumor cells were suspended in the medium used to culture each cell line without serum and implanted sub-cutaneously (s.c) into the hind flank region of mice on day 0. Daily treatment with Compound 152, formulated in 10% ethanol, 40% PEG and 50% sodium citrate buffer or vehicle alone commenced 10-14 d after implantation when average tumors were 100-200 mm^3 in size. Tumors were measured twice weekly and tumor volume was calculated as a product of (length×width^2)/2. Studies were typically terminated when the tumor in the vehicle treated animals reached a size of >1500 mm3 or when judged to adversely affect the well being of the animal. […] Where applicable, percent tumor regression for each group was calculated as 100×(tumor volumeinitial−tumor volumefinal)/(tumor volumeinitial). A cohort of 12 animals was used for each dose group for efficacy studies. A representative cohort of animals were sacrificed at the times indicated, tumors resected, and a blood sample taken from the cardiac left ventricle and immediately placed in a vial primed with heparin sulfate. Typically one half of the tumor was fixed in 10% neutral buffered formalin, paraffin embedded, and sectioned for immunohistochemistry. The other half was frozen in liquid nitrogen and later processed to generate cell lysates for target modulation studies.

[1] = test system: phosphorylation of AKT on S473 in PC3 tumors; test: In vivo target modulation study, PC3 tumors; design: species or system mouse
Method: (§1) In vivo target modulation studies to determine the effect of Compound 152 treatment on the phosphorylation of AKT on S473 by ELISA and S6 on S235/S236 by IHC were performed. Resected tumors were frozen on dry ice and pulverized using the FAST PREP instrument (Qbiogene). Briefly, frozen tumors were placed in Fast Prep matrix tubes, cold lysis buffer [20 mM HEPES (pH 7.5), 150 mM NaCl, 1.0 mM sodium EDTA, 1% Triton X-100, 2.5 mM sodium pyrophosphate, 1 mM sodium orthovanadate, 1 μg/ml leupeptin, and 1 mM PMSF] was added and samples were centrifuged for 5 sec, mixed and process repeated two more times. Samples were centrifuged in a cold refrigerated Eppendorf centrifuge at 14,000 RPM for 20 min. Supernatant was collected and total and phosphoAKT (S473) protein levels determined by ELISA. The extent of phosphorylation in tumors resected from treated animals was compared with that in tumors resected from vehicle-treated animals at the same time point. Plasma samples, obtained by centrifuging individual blood samples at 3000×g for 5 min at 4° C. in an Eppendorf 5417R centrifuge, were stored at −80° C. until they could be analyzed for drug concentration. Briefly, plasma samples (50 μl) or Compound 152 standards in mouse plasma were mixed with acetonitrile […]) and injected onto a LC/MS/MS system where separation occurred on a C-18 SB phenyl (5 μM, 2.1×50 mm, Agilent) reverse-phase high-performance liquid chromatography column. The amount of inhibitor and the internal standard (0.5 μM buspirone) in each mouse plasma sample was quantified based on standard curves generated using known amounts of compound. […] Time course and dose response of in vivo target modulation and plasma inhibitor concentrations were determined post last dose at the end of the efficacy study described above and data are summarized in Table 4.

[2] = test system: phosphorylation of AKT on S473 in SKOV3 tumors; test: In vivo target modulation study, SKOV3 tumors; design: species or system mouse
Method: as §1

[3] = PC3 tumor model, daily oral treatment

COc1ccc(-c2cc3c(C)nc(N)nc3n([C@H]3CC[C@H](O)CC3)c2=O)cn1 [Compound 152, 2-amino-8-(trans-4-hydroxycyclohexyl)-6-(6-methoxypyridin-3-yl)-4-methylpyrido[2,3-d]pyrimidin-7(8H)-one]
Growth Inhibition (%) (PC3 tumor model; PC3 prostate xenograft, 0.25 mg/kg/day oral): 45% | Growth Inhibition (%) (PC3 tumor model; PC3 prostate xenograft, 0.5 mg/kg/day oral): 62% | Growth Inhibition (%) (PC3 tumor model; PC3 prostate xenograft, 1 mg/kg/day oral): 89% | Regression (%) (PC3 tumor model; PC3 prostate xenograft, 2 mg/kg/day oral): 19% | anti-tumor efficacy (PC3 tumor model; [3]): dose-dependent anti-tumor efficacy; also recorded: regression | efficacious dose (PC3 tumor model; [3]): 1 mg/kg | p-Akt/Akt(%) ([1]; PC3, 0.25 mg/kg, 3 h post last dose): 42 ± 14% | p-Akt/Akt(%) ([1]; PC3, 0.25 mg/kg, 7 h post last dose): 82 ± 18% | p-Akt/Akt(%) ([1]; PC3, 0.25 mg/kg, 24 h post last dose): 137 ± 23% | p-Akt/Akt(%) ([1]; PC3, 0.5 mg/kg, 3 h post last dose): 32 ± 4% | p-Akt/Akt(%) ([1]; PC3, 0.5 mg/kg, 7 h post last dose): 38 ± 5% | p-Akt/Akt(%) ([1]; PC3, 0.5 mg/kg, 24 h post last dose): 107 ± 6% | p-Akt/Akt(%) ([1]; PC3, 1 mg/kg, 3 h post last dose): 23 ± 10% | p-Akt/Akt(%) ([1]; PC3, 1 mg/kg, 7 h post last dose): 27 ± 9% | p-Akt/Akt(%) ([1]; PC3, 1 mg/kg, 24 h post last dose): 113 ± 15% | p-Akt/Akt(%) ([1]; PC3, 2 mg/kg, 3 h post last dose): 21 ± 5% | p-Akt/Akt(%) ([1]; PC3, 2 mg/kg, 7 h post last dose): 17 ± 7% | p-Akt/Akt(%) ([1]; PC3, 2 mg/kg, 24 h post last dose): 78 ± 9% | inhibition of pAKT at S473 ([1]; PC3 tumors in vivo): dose dependent inhibition | p-Akt/Akt(%) ([2]; SKOV3, 0.5 mg/kg, 3 h post last dose): 30 ± 3% | p-Akt/Akt(%) ([2]; SKOV3, 0.5 mg/kg, 7 h post last dose): 55 ± 4% | p-Akt/Akt(%) ([2]; SKOV3, 0.5 mg/kg, 24 h post last dose): 147 ± 21% | p-Akt/Akt(%) ([2]; SKOV3, 1 mg/kg, 3 h post last dose): 27 ± 6% | p-Akt/Akt(%) ([2]; SKOV3, 1 mg/kg, 7 h post last dose): 48 ± 17% | p-Akt/Akt(%) ([2]; SKOV3, 1 mg/kg, 24 h post last dose): 124 ± 10% | p-Akt/Akt(%) ([2]; SKOV3, 2 mg/kg, 3 h post last dose): 23 ± 5% | p-Akt/Akt(%) ([2]; SKOV3, 2 mg/kg, 7 h post last dose): 30 ± 13% | p-Akt/Akt(%) ([2]; SKOV3, 2 mg/kg, 24 h post last dose): 126 ± 20% | inhibition of pAKT at S473 ([2]; SKOV3 tumors in vivo): dose dependent inhibition
